Literature values as cited in patent US20100121052A1, “Novel compounds for treating proliferative diseases” (priority 2008, published 2010).

Tested on: prostate cancer cell lines
Conditions: background statement

Structure (SMILES): CC(=O)O[C@@H]1[C@@H](OC(C)=O)[C@@H](O)[C@H](Oc2c(-c3ccc(O)cc3)oc3cc(O)cc(O)c3c2=O)O[C@H]1C [SL0101]
- inhibition of proliferation of multiple prostate cancer cell lines: inhibit the proliferation
